Laboratory results from US10500198B2, “Bis-benzylidine piperidone proteasome inhibitor with anticancer activity” (The Johns Hopkins University, priority 2013, dated 2019).

What was measured:
[1] = tested on: NCI-H929 cells; assay: Active caspase-3 by FACS; format: cell-based, human; details: 0.5 μM, 8 h
Method: NCI-H929 cells were treated with RA195 (0.5 μM) and Bz(0.5 μM) for the period of 8 h. Cells were stained for PE-conjugated Caspase-3 antibody and measured active caspase-3 by FACS.

[2] = tested on: U266 cells; assay: Active caspase-3 by FACS; format: cell-based; details: 0.5 μM, 8 h
Method: U266 cells were treated with RA195 (0.5 μM) and Bz(0.5 μM) for the period of 8 h. Cells were stained for PE-conjugated Caspase-3 antibody and measured active caspase-3 by FACS.

[3] = tested on: tetraubiquitin-firefly luciferase (4UbFL) reporter in HeLa cells; assay: Cell culture assay for luciferase (4UbFL reporter); format: cell-based, human; details: 4 hr treatment
Method: Sub-confluent cultures of HeLa cells were transfected with 4UbFL or FL plasmids using Lipofectamine 2000 reagent (Life Technologies, Carlsbad, Calif.). […] Luciferase activity in cell lysate was determined with a luciferase assay kit (Promega, Madison, Wis.) according to the manufacturer's instructions. Bioluminescence was measured by using a Glomax Multidetection system (Promega, Madison, Wis., USA).
HeLa cells were transiently transfected with tetra ubiquitin-fused firefly luciferase (4UB-FL) plasmid. After 48 h, the transfected cells were treated with titrations of the indicated compounds for 4 h, and luciferase activity was measured. Data is expressed as a 4UB-FL fold change compared to untreated cells.

[4] = tested on: TNFα-induced NFκB activation in 293 cells; assay: NFκB/FL reporter assay; format: cell-based; details: TNFα 10 ng/ml, 7 h
Method: 293 cells transiently transfected with either NFκB/FL (firefly luciferase reporter construct under control of an NFκB-driven promoter) or control CMV promoter-driven FL reporter construct were treated with compounds and TNFα (10 ng/ml) for 7 h. Upon the addition of luciferin, bioluminescence was measured in cell lysates using a luminometer. Results can be seen in FIG. 20.
293 cells transiently transfected with either NFκB/FL or control FL reporter genes were treated with compounds and TNFα (10 ng/ml) for 7 h. Upon the addition of luciferin, bioluminescence was measured in cell lysates using a luminometer.

[5] = tested on: HeLa cells; assay: Cell surface HSP90 staining; format: cell-based, human
Description: Cell surface HSP90 was detected by staining with purified anti-HSP90 mAb (Stressgen), followed by PE-conjugated anti-mouse IgG1. The data were acquired with a FACSCalibur and analyzed using CellQuest software.

SMILES | active caspase-3 [1] | active caspase-3 [2] | proteasome inhibition by 4UbFL stabilization (relative potency) [3] | TNFα-induced NFκB activation [4] | surface display of HSP90 [5]
CC(=O)N[C@@H](CCCCN)C(=O)N1C/C(=C\c2ccc(Cl)c(Cl)c2)C(=O)/C(=C/c2ccc(Cl)c(Cl)c2)C1.Cl [RA195Ac] | caused an increase in caspase-3 expression | caused an increase in caspase-3 expression | more potent than the parent molecule RA195 | inhibited TNFα-induced NFκB activation | 
Cl.NCCCC[C@H](NC(=O)OCc1ccccc1Cl)C(=O)N1C/C(=C\c2ccc([N+](=O)[O-])cc2)C(=O)/C(=C/c2ccc([N+](=O)[O-])cc2)C1 [RA195Bn] | caused an increase in caspase-3 expression | caused an increase in caspase-3 expression | more potent than the parent molecule RA195 |  | 
N.N.[Cl][Pt][Cl] [cisplatin] |  |  |  |  | did not induce surface display of HSP90
